Reference: patent US20250230193A1, “CYCLIC COMPOUND HAVING SELECTIVE KRAS INHIBITORY EFFECT ON HRAS AND NRAS” (CHUGAI SEIYAKU KABUSHIKI KAISHA, priority 2022, published 2025)

How the values were obtained:
[1] = target: GDP-bound NRAS wild-type protein (Homo sapiens, UniProt P01111); experiment: Binding to NRAS by surface plasmon resonance (SPR), Single Cycle Kinetics; details: SPR; KD ratio class
[2] = target: GDP-bound HRAS wild-type protein (Homo sapiens, UniProt P01112); experiment: Binding to HRAS by surface plasmon resonance (SPR), Single Cycle Kinetics; details: SPR; KD ratio class
[3] = tested on: human lung cancer strain NCI-H441; experiment: cells; details: NCI-H441, 96 h, read-out: NCI-H441 IC50 (nM)

GDP-bound NRAS wild-type protein, sequence (P01111 whole entry): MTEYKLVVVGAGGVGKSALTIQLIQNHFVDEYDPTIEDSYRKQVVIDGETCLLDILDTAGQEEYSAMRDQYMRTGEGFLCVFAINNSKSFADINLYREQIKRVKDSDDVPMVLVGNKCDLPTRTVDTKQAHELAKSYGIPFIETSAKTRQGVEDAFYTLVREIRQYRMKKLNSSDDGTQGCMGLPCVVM
GDP-bound HRAS wild-type protein, sequence (P01112 whole entry): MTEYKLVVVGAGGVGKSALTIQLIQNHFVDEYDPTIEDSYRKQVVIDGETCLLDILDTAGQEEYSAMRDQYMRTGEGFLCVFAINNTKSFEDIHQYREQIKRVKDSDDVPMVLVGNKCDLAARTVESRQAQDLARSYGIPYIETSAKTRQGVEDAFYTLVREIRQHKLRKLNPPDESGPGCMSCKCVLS

Compound: CCO[C@@H]1C[C@H]2C(=O)NC3(CCC3)C(=O)N(C)[C@@H](C3CCCC3)C(=O)N(C)[C@H](C(=O)N3CCOCC3)CC(=O)N(C)[C@@H](CC)C(=O)N[C@@H]([C@@H](C)CC)C(=O)N3CC[C@H]3C(=O)N(C)[C@H]3CC[C@@H](C)CN(C3=O)[C@@H](Cc3ccc(C(F)(F)F)cc3)C(=O)N(C)CC(=O)N[C@@H](CCc3ccc(C(F)(F)F)c(Cl)c3)C(=O)N2C1 [PP1375]
- NRAS/KRAS (ratio of KD value for GDP-bound NRAS wild-type protein to KD value for KRAS) [1]: B (a compound having 3 or more and less than 10 is denoted as B)
- HRAS/KRAS (ratio of KD value for GDP-bound HRAS wild-type protein to KD value for KRAS) [2]: B (a compound having 3 or more and less than 10 is denoted as B)
- IC50 [3]: 11.5 nM

Compound: CCO[C@@H]1C[C@H]2C(=O)NC3(CCCC3)C(=O)N(C)[C@@H](C3CCCC3)C(=O)N(C)[C@H](C(=O)N(C)C)CC(=O)N(C)[C@@H](CC)C(=O)N[C@@H]([C@@H](C)CC)C(=O)N(C)CC(=O)N(C)[C@H]3CC[C@@H](C)CN(C3=O)[C@@H](Cc3ccc(C(F)(F)F)cc3)C(=O)N(C)CC(=O)N[C@@H](CCc3ccc(C(F)(F)F)c(Cl)c3)C(=O)N2C1 [PP1376]
- NRAS/KRAS (ratio of KD value for GDP-bound NRAS wild-type protein to KD value for KRAS) [1]: B (a compound having 3 or more and less than 10 is denoted as B)
- HRAS/KRAS (ratio of KD value for GDP-bound HRAS wild-type protein to KD value for KRAS) [2]: B (a compound having 3 or more and less than 10 is denoted as B)
- IC50 [3]: 3.5 nM

Compound: CCO[C@@H]1C[C@H]2C(=O)NC3(CCCC3)C(=O)N(C)[C@@H](C3CCCC3)C(=O)N(C)[C@H](C(=O)N3CCOCC3)CC(=O)N(C)[C@@H](CC)C(=O)N[C@@H]([C@@H](C)CC)C(=O)N(C)CC(=O)N(C)[C@H]3CC[C@@H](C)CN(C3=O)[C@@H](Cc3ccc(C(F)(F)F)cc3)C(=O)N(C)CC(=O)N[C@@H](CCc3ccc(C(F)(F)F)c(Cl)c3)C(=O)N2C1 [PP1377]
- NRAS/KRAS (ratio of KD value for GDP-bound NRAS wild-type protein to KD value for KRAS) [1]: B (a compound having 3 or more and less than 10 is denoted as B)
- HRAS/KRAS (ratio of KD value for GDP-bound HRAS wild-type protein to KD value for KRAS) [2]: B (a compound having 3 or more and less than 10 is denoted as B)
- IC50 [3]: 5.8 nM

Compound: CCO[C@@H]1C[C@H]2C(=O)NC3(CCC3)C(=O)N(C)[C@@H](C3CCCC3)C(=O)N(C)[C@H](C(=O)N3CCOCC3)CC(=O)N(C)[C@@H](CC)C(=O)N[C@@H]([C@@H](C)CC)C(=O)N(C)CC(=O)N(C)[C@H]3CC[C@@H](C)CN(C3=O)[C@@H](Cc3ccc(C(F)(F)F)cc3)C(=O)N(C)CC(=O)N[C@@H](CCc3ccc(C(F)(F)F)c(Cl)c3)C(=O)N2C1 [PP1378]
- NRAS/KRAS (ratio of KD value for GDP-bound NRAS wild-type protein to KD value for KRAS) [1]: B (a compound having 3 or more and less than 10 is denoted as B)
- HRAS/KRAS (ratio of KD value for GDP-bound HRAS wild-type protein to KD value for KRAS) [2]: C (A compound having a KD ratio of 0.1 or more and less than 3 is denoted as C)
- IC50 [3]: 6.6 nM

Compound: CCO[C@@H]1C[C@H]2C(=O)NC3(CCC3)C(=O)N(C)[C@@H](C3CCCC3)C(=O)N(C)[C@H](C(=O)N3CCOCC3)CC(=O)N(C)[C@@H](CC(C)C)C(=O)N[C@@H]([C@@H](C)CC)C(=O)N3CC[C@H]3C(=O)N(C)[C@H]3CC[C@@H](C)CN(C3=O)[C@@H](Cc3ccc(C(F)(F)F)cc3)C(=O)N(C)CC(=O)N[C@@H](CCc3ccc(C(F)(F)F)c(Cl)c3)C(=O)N2C1 [PP1379]
- NRAS/KRAS (ratio of KD value for GDP-bound NRAS wild-type protein to KD value for KRAS) [1]: A (a compound having 10 or more and less than 20 is denoted as A)
- HRAS/KRAS (ratio of KD value for GDP-bound HRAS wild-type protein to KD value for KRAS) [2]: B (a compound having 3 or more and less than 10 is denoted as B)
- IC50 [3]: 10.3 nM

Compound: CC[C@H](C)[C@@H]1NC(=O)[C@H](CC)N(C)C(=O)C[C@@H](C(=O)N(C)C)N(C)C(=O)[C@H](C2CCCC2)N(C)C(=O)C2(CCCC2)NC(=O)[C@@H]2CCCN2C(=O)[C@H](CCc2cc(F)c(C(F)(F)F)c(F)c2)NC(=O)CN(C)C(=O)[C@H](Cc2ccc(C(F)(F)F)cc2)N2C[C@H](C)CC[C@@H](C2=O)N(C)C(=O)CN(C)C1=O [PP1382]
- NRAS/KRAS (ratio of KD value for GDP-bound NRAS wild-type protein to KD value for KRAS) [1]: B (a compound having 3 or more and less than 10 is denoted as B)
- HRAS/KRAS (ratio of KD value for GDP-bound HRAS wild-type protein to KD value for KRAS) [2]: B (a compound having 3 or more and less than 10 is denoted as B)
- IC50 [3]: 15.8 nM

Compound: CC[C@H](C)[C@@H]1NC(=O)[C@H](CC)N(C)C(=O)C[C@@H](C(=O)N2CCOCC2)N(C)C(=O)[C@H](C2CCCC2)N(C)C(=O)C2(CCCC2)NC(=O)[C@@H]2CCCN2C(=O)[C@H](CCc2cc(F)c(C(F)(F)F)c(F)c2)NC(=O)CN(C)C(=O)[C@H](Cc2ccc(C(F)(F)F)cc2)N2C[C@H](C)CC[C@@H](C2=O)N(C)C(=O)CN(C)C1=O [PP1383]
- NRAS/KRAS (ratio of KD value for GDP-bound NRAS wild-type protein to KD value for KRAS) [1]: B (a compound having 3 or more and less than 10 is denoted as B)
- HRAS/KRAS (ratio of KD value for GDP-bound HRAS wild-type protein to KD value for KRAS) [2]: B (a compound having 3 or more and less than 10 is denoted as B)
- IC50 [3]: 11.2 nM

Compound: CC[C@H](C)[C@@H]1NC(=O)[C@H](CC)N(C)C(=O)C[C@@H](C(=O)N2CCOCC2)N(C)C(=O)[C@H](C2CCCC2)N(C)C(=O)C2(CCC2)NC(=O)[C@@H]2CCCN2C(=O)[C@H](CCc2cc(F)c(C(F)(F)F)c(F)c2)NC(=O)CN(C)C(=O)[C@H](Cc2ccc(C(F)(F)F)cc2)N2C[C@H](C)CC[C@@H](C2=O)N(C)C(=O)CN(C)C1=O [PP1384]
- NRAS/KRAS (ratio of KD value for GDP-bound NRAS wild-type protein to KD value for KRAS) [1]: A (a compound having 10 or more and less than 20 is denoted as A)
- HRAS/KRAS (ratio of KD value for GDP-bound HRAS wild-type protein to KD value for KRAS) [2]: B (a compound having 3 or more and less than 10 is denoted as B)
- IC50 [3]: 13.5 nM

Compound: CC[C@H](C)[C@@H]1NC(=O)[C@H](CC2CCC2)N(C)C(=O)C[C@@H](C(=O)N(C)C)N(C)C(=O)[C@H](C2CCCC2)N(C)C(=O)C2(CCCC2)NC(=O)[C@@H]2CCCN2C(=O)[C@H](CCc2cc(F)c(C(F)(F)F)c(F)c2)NC(=O)CN(C)C(=O)[C@H](Cc2ccc(C(F)(F)F)cc2)N2C[C@H](C)CC[C@@H](C2=O)N(C)C(=O)CN(C)C1=O [PP1386]
- NRAS/KRAS (ratio of KD value for GDP-bound NRAS wild-type protein to KD value for KRAS) [1]: B (a compound having 3 or more and less than 10 is denoted as B)
- HRAS/KRAS (ratio of KD value for GDP-bound HRAS wild-type protein to KD value for KRAS) [2]: B (a compound having 3 or more and less than 10 is denoted as B)
- IC50 [3]: 4.2 nM

Compound: CCO[C@@H]1C[C@H]2C(=O)NC3(CCC3)C(=O)N(C)[C@@H](C3CCCC3)C(=O)N(C)[C@H](C(=O)N(C)C)CC(=O)N(C)[C@@H](CC3CCCC3)C(=O)N[C@@H]([C@@H](C)CC)C(=O)N(C)CC(=O)N(C)[C@H]3C/C=C\CCN(C3=O)[C@@H](Cc3ccc(F)cc3)C(=O)N(C)CC(=O)N[C@@H](CCc3ccc4sccc4c3)C(=O)N2C1 [PP1390]
- NRAS/KRAS (ratio of KD value for GDP-bound NRAS wild-type protein to KD value for KRAS) [1]: A (a compound having 10 or more and less than 20 is denoted as A)
- HRAS/KRAS (ratio of KD value for GDP-bound HRAS wild-type protein to KD value for KRAS) [2]: A (a compound having 10 or more and less than 20 is denoted as A)
- IC50 [3]: 305 nM

Compound: CCO[C@@H]1C[C@H]2C(=O)NC3(CCC3)C(=O)N(C)[C@@H](C3CCCC3)C(=O)N(C)[C@H](C(=O)N3CCCC3)CC(=O)N(C)[C@@H](CC3CCCC3)C(=O)N[C@@H]([C@@H](C)CC)C(=O)N(C)CC(=O)N(C)[C@H]3C/C=C\CCN(C3=O)[C@@H](Cc3ccc(F)cc3)C(=O)N(C)CC(=O)N[C@@H](CCc3ccc4sccc4c3)C(=O)N2C1 [PP1391]
- NRAS/KRAS (ratio of KD value for GDP-bound NRAS wild-type protein to KD value for KRAS) [1]: A (a compound having 10 or more and less than 20 is denoted as A)
- HRAS/KRAS (ratio of KD value for GDP-bound HRAS wild-type protein to KD value for KRAS) [2]: A (a compound having 10 or more and less than 20 is denoted as A)
- IC50 [3]: 271 nM

Compound: CCO[C@@H]1C[C@H]2C(=O)NC3(CCC3)C(=O)N(C)[C@@H](C3CCCC3)C(=O)N(C)[C@H](C(=O)N3CCOCC3)CC(=O)N(C)[C@@H](CC3CCCC3)C(=O)N[C@@H]([C@@H](C)CC)C(=O)N(C)CC(=O)N(C)[C@H]3C/C=C\CCN(C3=O)[C@@H](Cc3ccc(C(F)(F)F)cc3)C(=O)N(C)CC(=O)N[C@@H](CCc3cc(F)c(C(F)(F)F)c(F)c3)C(=O)N2C1 [PP1393]
- NRAS/KRAS (ratio of KD value for GDP-bound NRAS wild-type protein to KD value for KRAS) [1]: A (a compound having 10 or more and less than 20 is denoted as A)
- HRAS/KRAS (ratio of KD value for GDP-bound HRAS wild-type protein to KD value for KRAS) [2]: A (a compound having 10 or more and less than 20 is denoted as A)
- IC50 [3]: 18.2 nM

Compound: CCO[C@@H]1C[C@H]2C(=O)NC3(CCC3)C(=O)N(C)[C@@H](C3CCCC3)C(=O)N(C)[C@H](C(=O)N3CCOCC3)CC(=O)N(C)[C@@H](CC3CCCC3)C(=O)N[C@@H]([C@@H](C)CC)C(=O)N(C)CC(=O)N(C)[C@H]3C/C=C\CCN(C3=O)[C@@H](Cc3ccc(C)cc3)C(=O)N(C)CC(=O)N[C@@H](CCc3cc(F)c(C(F)(F)F)c(F)c3)C(=O)N2C1 [PP1394]
- NRAS/KRAS (ratio of KD value for GDP-bound NRAS wild-type protein to KD value for KRAS) [1]: AA (a compound having 20 or more is denoted as AA)
- HRAS/KRAS (ratio of KD value for GDP-bound HRAS wild-type protein to KD value for KRAS) [2]: A (a compound having 10 or more and less than 20 is denoted as A)
- IC50 [3]: 25.1 nM

Compound: CCCOC[C@H]1C(=O)N[C@@H]([C@@H](C)CC)C(=O)N(C)CC(=O)N(C)[C@H]2C/C=C\CCN(C2=O)[C@@H](Cc2ccc(C(F)(F)F)cc2)C(=O)N(C)CC(=O)N[C@@H](CCc2cc(F)c(C(F)(F)F)c(F)c2)C(=O)N2C[C@H](OCC)C[C@H]2C(=O)NC2(CCCC2)C(=O)N(C)[C@@H](C2CCCC2)C(=O)N(C)[C@H](C(=O)N2CCCC2)CC(=O)N1C [PP1399]
- NRAS/KRAS (ratio of KD value for GDP-bound NRAS wild-type protein to KD value for KRAS) [1]: A (a compound having 10 or more and less than 20 is denoted as A)
- HRAS/KRAS (ratio of KD value for GDP-bound HRAS wild-type protein to KD value for KRAS) [2]: A (a compound having 10 or more and less than 20 is denoted as A)
- IC50 [3]: 18.8 nM

Compound: CCCOC[C@H]1C(=O)N[C@@H]([C@@H](C)CC)C(=O)N(C)CC(=O)N(C)[C@H]2C/C=C\CCN(C2=O)[C@@H](Cc2ccc(C)cc2)C(=O)N(C)CC(=O)N[C@@H](CCc2cc(F)c(C(F)(F)F)c(F)c2)C(=O)N2C[C@H](OCC)C[C@H]2C(=O)NC2(CCCC2)C(=O)N(C)[C@@H](C2CCCC2)C(=O)N(C)[C@H](C(=O)N2CCCC2)CC(=O)N1C [PP1401]
- NRAS/KRAS (ratio of KD value for GDP-bound NRAS wild-type protein to KD value for KRAS) [1]: A (a compound having 10 or more and less than 20 is denoted as A)
- HRAS/KRAS (ratio of KD value for GDP-bound HRAS wild-type protein to KD value for KRAS) [2]: A (a compound having 10 or more and less than 20 is denoted as A)
- IC50 [3]: 34.4 nM
